Measurements reported in patent US9522917B2, “Bruton's tyrosine kinase inhibitors for hematopoietic mobilization” (Acerta Pharma B.V., priority 2012, dated 2016).

What was measured:
stem cell migration = conditions: cited from earlier work
[1] = test system: Human CD34+ hematopoietic progenitor cells; experiment: In vitro Transwell migration of human CD34+ cells towards an SDF-1 gradient; assay type: cell-based
Protocol: Human CD34+ hematopoietic progenitor cells were isolated from G-CSF mobilized peripheral blood and incubated with varying concentrations (0.1 μM, 1.0 μM and 10 μM) of the pyrimidine-based BTK inhibitor 1-[(3R)-3-[4-amino-3-(4-phenoxyphenyl)pyrazolo[3,4-d]pyrimidin-1-yl]piperidin-1-yl]prop-2-en-1-one for one hour at 37° C., 5% CO2 in serum free media (0.5% bovine serum albumin in RPMI media). Cells were then transferred to the upper chamber of a Transwell migration plate (5.0 um pore size, Costar Inc.). The lower chamber contained only serum-free media with 100 ng/ml SDF-1. Cells were incubated for five hours at 37° C., 5% CO2 to allow for cell migration from the upper chamber to the lower chamber. Cells that migrated into the lower chamber were counted using a hemocytometer.

Row | Structure (SMILES) | concentration reported for activity in similar assays (stem cell migration) [µM] | inhibition of stem cell migration ([1]; 0.1 μM, 1.0 μM and 10 μM, one hour preincubation, five hours migration to 100 ng/ml SDF-1, FIG. 1) | activity at lower concentration than reported for plerixafor ([1]; versus plerixafor (50 μM) in similar assays) [fold]
1 | c1cc(CN2CCCNCCNCCCNCC2)ccc1CN1CCCNCCNCCCNCC1 [plerixafor] | 50 |  | 
2 | C=CC(=O)N1CCC[C@@H](n2nc(-c3ccc(Oc4ccccc4)cc3)c3c(N)ncnc32)C1 [Btk inhibitor, 1-[(3R)-3-[4-amino-3-(4-phenoxyphenyl)pyrazolo[3,4-d]pyrimidin-1-yl]piperidin-1-yl]prop-2-en-1-one] |  | inhibition of stem cell migration was seen at all tested concentrations | 500
